Experimental findings from ChEMBL document CHEMBL3351457, “Design and synthesis of 8-hydroxyquinoline-based radioprotective agents” (Bioorg Med Chem, 2014) are described below.

Series [1] relates to MOLT-4. Nature of the series: Radioprotective activity against gamma-irradiated human MOLT4 cells preincubated for 1 hr at <50 uM before gamma-irradiation measured after 18 hrs by erythrosine B dye-exclusion test. Format: functional, cell-based.
Series [2] deals with MOLT-4. Nature of the series: Cytotoxicity against human MOLT4 cells at 100 to 400 uM after 18 hrs by erythrosine B dye-exclusion test. Format: cell-based. The conditions noted are these: molt-4, 18 h.
The test system of series [3] is MOLT-4. Nature of the series: Radioprotective activity against gamma-irradiated human MOLT4 cells preincubated for 1 hr at 100 to 400 uM before gamma-irradiation measured after 18 hrs by erythrosine B dye-exclusion test. Format: functional, cell-based.
The test system of series [4] is MOLT-4. Nature of the series: Inhibition of apoptosis in gamma-irradiated human MOLT4 cells preincubated for 1 hr at 100 to 400 uM before gamma-irradiation measured after 18 hrs by erythrosine B dye-exclusion test. Format: functional, cell-based.
For series [5], the system named is MOLT-4. The experiment in a line: Cytotoxicity against human MOLT4 cells at 200 to 300 uM after 18 hrs by erythrosine B dye-exclusion test. The note with it: molt-4, 18 h. Format: cell-based.
Series [6] is described as follows: Stability of the compound assessed as hydrolysis at 37 degC after 18 hrs. Format: physicochemical.
For series [7], the system named is MOLT-4. The experiment in a line: Radioprotective activity against gamma-irradiated human MOLT4 cells preincubated for 1 hr before gamma-irradiation measured after 18 hrs by erythrosine B dye-exclusion test. Format: functional, cell-based.
The target in series [8] is Cellular tumor antigen p53 (Homo sapiens) (UniProt P04637). The experiment in a line: Binding affinity to recombinant FLAG-p53 (unknown origin) assessed as confirmational change measured after 12 hrs by CD spectroscopy in presence of zinc(II) chelators.
Sequence of Cellular tumor antigen p53 (Homo sapiens) (P04637 whole entry, looked up): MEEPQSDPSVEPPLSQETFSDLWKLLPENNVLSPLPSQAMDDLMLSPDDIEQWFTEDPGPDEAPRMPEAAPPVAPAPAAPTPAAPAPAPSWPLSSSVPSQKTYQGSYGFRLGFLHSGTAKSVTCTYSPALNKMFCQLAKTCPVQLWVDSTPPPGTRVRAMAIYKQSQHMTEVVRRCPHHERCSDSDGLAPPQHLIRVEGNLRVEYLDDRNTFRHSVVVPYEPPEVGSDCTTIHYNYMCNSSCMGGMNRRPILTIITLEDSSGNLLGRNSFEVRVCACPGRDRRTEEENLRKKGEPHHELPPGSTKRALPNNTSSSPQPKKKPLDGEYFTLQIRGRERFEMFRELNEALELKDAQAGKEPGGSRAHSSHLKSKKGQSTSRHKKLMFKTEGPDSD
Series [9] has as its system MOLT-4. Nature of the series: Inhibition of apoptosis in gamma-irradiated human MOLT4 cells compound treated at 100 to 400 uM for 3 hrs post gamma-irradiation after 18 hrs by erythrosine B dye-exclusion test. Format: functional, cell-based.
For series [10], the system named is Jurkat. Nature of the series: Radioprotective activity against gamma-irradiated p53-inactive human Jurkat cells at after 18 hrs by erythrosine B dye-exclusion test. Format: functional, cell-based.
In series [11] the test system is Jurkat. The experiment in a line: Cytotoxicity against p53-inactive human Jurkat cells at after 18 hrs by erythrosine B dye-exclusion test. Format: cell-based.
Series [12] is described as follows: Antioxidant activity assessed as DPPH free radical scavenging activity by UV-vis spectrophotometry. Format: physicochemical. (The DPPH test is a chemical assay of radical scavenging.)
Series [13] concerns the target Cellular tumor antigen p53 (Homo sapiens) (UniProt P04637). Nature of the series: Inhibition of recombinant FLAG-p53 (unknown origin) binding to FITC-labeled double-stranded oligonucleotide measured after 3 hrs by EMSA in presence of zinc(II) chelators.

Activity calls are given as the source filed them. The calls are words filed in the database; no cut-off is given here.

In the case of `Oc1ccc(Cl)c2cccnc12` [CLOXYQUIN], in series [1], the result was Active. The Activity entry in series [2] was “Toxic”.
As for `c1ccc2cnccc2c1`, the outcome in [3] was inactive.
Consider `Cc1ccc2c(S(=O)(=O)N(C)C)cc(Br)c(O)c2n1`, for which the result in series [3] was Active. In [2], the Activity entry was “Non-toxic”.
In the case of `CNS(=O)(=O)c1ccc(OC)c2nc(C)ccc12`, the Activity entry in series [2] is on record as “Non-toxic”. For the same compound, the “apoptosis inhibition (active/inactive)” value in series [4] is “Active”.
As for `CCOc1c(S(=O)(=O)N(CC)CC)cc(S(=O)(=O)N(CC)CC)c2ccc(C)nc12`, the Activity entry in series [2] was “Toxic”.
For the compound `COc1c(I)cc(S(=O)(=O)N(C)C)c2ccc(C)nc12`, the Activity entry in series [2] was “Toxic”. For the same compound, the “apoptosis inhibition (active/inactive)” value in [4] is “Active”.
For `COc1cc(/C=C/C(=O)CC(=O)/C=C/c2ccc(O)c(OC)c2)ccc1O`, the outcome in series [1] was Active.
As to `COc1c(Br)cc(S(=O)(=O)N(C)C)c2ccc(C)nc12`, the Activity entry in series [2] is reported as “Toxic”. Moreover, in series [4], the “apoptosis inhibition (active/inactive)” value is “Active”.
Turning to `Oc1ccc(Cl)c2ccccc12`, the result in series [3] was inactive.
As to `Cc1ccc2c(S(N)(=O)=O)cc(S(N)(=O)=O)c(O)c2n1`, in series [3], the result was inactive.
`c1ccc(CN(CCN(Cc2ccccn2)Cc2ccccn2)Cc2ccccn2)nc1`: the outcome in [1] was Active.
Still for that read-out and setting: as for VITAMIN E, the entry is “Active”.
As for `CNS(=O)(=O)c1cc(S(=O)(=O)NC)c2ccc(C)nc2c1OS(C)(=O)=O`, in [5], the Activity result is on record as “Toxic”. Moreover, the Stability result in [6] is “Unstable”.
Regarding `CNS(=O)(=O)c1cc(S(=O)(=O)NC)c2ccc(C)nc2c1OC`, the “apoptosis inhibition (active/inactive)” value in series [4] was “Active”.
As for `Cc1ccc2c(S(=O)(=O)NCCN)cc(S(=O)(=O)NCCN)c(O)c2n1`, the outcome in series [3] was inactive.
On the same count and under the same terms, for `c1ccc2ncccc2c1` the value was “inactive”.
Regarding `CN(C)S(=O)(=O)c1ccc(O)c2ncccc12`, the result in [3] was Active.
Regarding `CCN(CC)S(=O)(=O)c1cc(S(=O)(=O)N(CC)CC)c2ccc(C)nc2c1O`, the Activity result in series [2] is “Toxic”.
On the same count and under the same terms, for `CCOc1c(Br)cc(S(=O)(=O)N(C)C)c2ccc(C)nc12` the value was “Toxic”.
On to `Cc1ccc2c(S(=O)(=O)N(C)C)ccc(O)c2n1`, for which the outcome in [3] was Active. Also, the Activity result in [2] is on record as “Non-toxic”.
In the case of `CN(C)S(=O)(=O)c1cc(Br)c(O)c2ncccc12`, in series [3], the result was Active.
In the case of `Oc1cccc2cccnc12` [OXYQUINOLINE], the outcome in series [1] was Active. Moreover, the Activity entry in series [2] is recorded as “Toxic”.
For the compound `Cc1ccc2c(S(=O)(=O)N(C)C)cc(S(=O)(=O)N(C)C)c(O)c2n1`, the Activity entry in [2] is “Toxic”.
Turning to `Cc1ccc2c(S(=O)(=O)N3CCCNCC3)cc(S(=O)(=O)N3CCCNCC3)c(O)c2n1`, the result in series [3] was Active.
As to `CCOc1c(I)cc(S(=O)(=O)N(C)C)c2ccc(C)nc12`, the Activity result in series [2] is given as “Toxic”.
Take `Cc1ccc2c(S(=O)(=O)N3CCNCC3)cc(S(=O)(=O)N3CCNCC3)c(O)c2n1`: the outcome in series [3] was Active.
As for `CCOc1ccc(S(=O)(=O)N(C)C)c2ccc(C)nc12`, the “apoptosis inhibition (active/inactive)” value in series [4] is “Active”.
For `CN(C)S(=O)(=O)c1ccc2c(S(=O)(=O)N(C)C)cc(S(=O)(=O)N(C)C)c(O)c2c1`, the outcome in series [3] was inactive.
As to `CCN(CC)S(=O)(=O)c1cc(S(=O)(=O)N(CC)CC)c2ccc(C)nc2c1OC`, the Activity result in [2] is “Toxic”. Also, the “apoptosis inhibition (active/inactive)” value in series [4] is “Active”.
The corresponding values for `COc1ccc(S(=O)(=O)N(C)C)c2ccc(C)nc12` are “Non-toxic” and “Active”.
Regarding `CNS(=O)(=O)c1cc(S(=O)(=O)NC)c2cccnc2c1O`, the outcome in series [1] was inactive. Besides, in series [3], the outcome was Active. In [7], the Activity entry is “Dose-dependent effect”.
As for `O=C1O[C@H]([C@@H](O)CO)C(O)=C1O`, in [1], the outcome was Active.
Consider `Oc1cccc2ccccc12`, for which the result in [3] was inactive.
`c1ccc(CNCCNCc2ccccn2)nc1`: the outcome in series [1] and in series [8] was Active.
Turning to `CCCNS(=O)(=O)c1cc(S(=O)(=O)NCCC)c2ccc(C)nc2c1O`, in [2], the Activity result is reported as “Toxic”.
Regarding `CNS(=O)(=O)c1cc(S(=O)(=O)NC)c2ccc(C)nc2c1O`, the result in series [3] was Active. Further, the Activity entry in series [2] is “Non-toxic”; in series [7] it was “Dose-dependent effect”; in series [11], “Non-toxic”; in series [12] it was “Not Active”. In [9], the inhibition result was “Active”. The result in [10] and in [8] was inactive. Moreover, in series [13], the inhibition entry was “inactive”.
For `COc1c(S(=O)(=O)N(C)C)cc(S(=O)(=O)N(C)C)c2ccc(C)nc12`, the values for the Activity entry in [2], in [11] and in series [12] were “Non-toxic”, “Non-toxic” and “Not Active”, respectively. Also, the inhibition result in series [9] was “Active”. The outcome in [10] and in [8] was inactive. In addition, the inhibition result in series [13] is “inactive”. In addition, in series [4], the “apoptosis inhibition (active/inactive)” value was “Active”.
With `CCOc1c(S(=O)(=O)N(C)C)cc(S(=O)(=O)N(C)C)c2ccc(C)nc12`, the “apoptosis inhibition (active/inactive)” value in series [4] is “Active”.
On to `Cc1ccc2cccc(O)c2n1`, for which, in series [3], the outcome was Active.
